Reference: patent publication US5110935A, “New compounds which are active against the tissue forms of malaria and method of preparation” (Ire-Celltarg, S.A., priority 1988, dated 1992)
Entries after “also recorded” stand apart in the source; their conditions may differ. Read-outs that look alike come from different tables or passages of the source.

What was measured:
[1] = test system: persistent tissue forms of P. vivax and P. ovale; conditions: persistent tissue forms of P. vivax and P. ovale in man; cited from earlier work
[2] = test system: human red cells; assay: Hemolytic effect on human red cells; format: cell-based
Protocol: Two important toxic effects of PQ were assessed on the two derivatives: the hemolytic effect and the conversion of hemoglobin to methemoglobin.
A+ blood is washed twice in 0.15M phosphatebuffered saline at pH 7.4 containing 20 mM glucose (GPBS), and then resuspended at a concentration of 50% in the same buffer. To this suspension, an equal volume of compound dissolved in GPBS at different concentrations (test), or of GPBS (control) is added. The final hematocrit of the suspension is 25%. After 60 minutes' incubation at 37° C., the concentration of hemoglobin and methemoglobin is determined on the total suspension, and the concentration of hemoglobin present in the supernatant after centrifugation (extracellular hemoglobin) is determined, by the cyanmethemoglobin and benzidine methods (Fairbanks V.F., 1976, in "Fundamentals of Clinical Chemistry, M.W. Tietz Editors, Saunders").

[3] = test system: man; conditions: human, in vivo, cited from earlier work
[4] = test system: Plasmodium berghei; assay: Causal prophylactic activity on OF1 mice infected with Plasmodium berghei; format: in vivo, P. berghei (ANKA), in Swiss OF1 mice; conditions: for ED50 / ED100 / minimal effective dose: Plasmodium berghei, 3 h; for ED50 / ED100 / minimal effective dose / CPD50, fold lower than for PQ: iv; for ED50: read-out: CPD50, causal prophylactic dose curing 50% of the infected and treated animals; for ED100: read-out: ED100, totally curative dose; for minimal effective dose: read-out: Minimal effective dose (MED); for PQ index: ratio CPD50 of PQ/CPD50 of the compound
Protocol: Primaquine and its derivatives are tested in the model of malaria in rodents employing the infection of mice with Plasmodium berghei, the sporozoites originating from infected Anopheles stephensi mosquitoes. This model, developed by Most H., Herman R. & Schoenfeld C. (1967), Am. J. Trop. med. Hyg. 16, 572-575, enables the casual prophylatic (tissue schizonticidal) activity of new therapeutic compounds to be determined.
The procedure used is that derived from Most H. & Montuori W.A. (1975), Am. J. Trop. Med. Hyg. 24, 179-189. It involves the system P. berghei (ANKA)/Anopheles stephensi/Swiss OF1 mice. The ANKA strain of P. b. berghei is maintained cyclically on Anopheles stephensi. The Swiss OF1 strain mouse is especially sensitive to P. b. berghei, which produces an invariably fatal infection.
The legs, wings and abdomen are removed from female mosquitoes (80 to 100 individuals per preparation) and the latter are then homogenized at 4° C. in MEM medium (GIBCO) containing 10% of fetal calf serum using a glass Potter. The sporozoite suspension is then purified from the mosquito debris by two successive centrifugations (2 min at 50 g and 5 min at 200 g) and the collected supernatant is stored at 4° C. After counting in a Petroff-Hausser chamber, the number of parasites is adjusted by dilution with the same cold medium to a density of 2×10^5 sporozoites/ml.
The causal prophylactic activity of the compounds, that is to say the dose enabling 50% of the infected animals to be cured (CPD50) is obtained by analysis of the logits of the response (expressed as a % LTS) as a function of the dose (mg PQ/kg).
A volume of 0.5 ml of the suspension containing 10^5 sporozoites is injected i.v. into female Swiss OF1 mice weighing 20 to 25 g, used for the therapeutic tests. 1.2. Chemotherapeutic treatments
Groups of 20 to 25 mice, infected as described above, are treated with a single intravenous injection of primaquine diphosphate (PQ) or of its two derivatives in hydrochloride form, three hours after inoculation of the sporozoites. The volume injected is adjusted according to the weight of the mouse, on the basis of 0.25 ml for a weight of 25 g. The compounds are diluted in phosphatebuffered saline (PBS), pH 7.0, and the pH is adjusted to 7.0. Infected but untreated mice (5 per group), receive the buffer alone and serve to monitor the infectivity of the sporozoites.
The experimental mice are kept for a period of 50 days. The development of the parasitemia is followed by daily examination of blood smears stained for 60 min with 5% Giemsa in Sorensen buffer at pH 7.2, from day 5 up to day 15. The number of infected animals can thus be determined.
(§1) The animals infected using P. berchei sporozoites are treated three hours later with a single i.v. injection of the compounds. This test enables the casual prophylactic activity of the compounds, that is the dose enabling 50% of the infected animals to be cured (CPD50), to be defined. The dose is always expressed as mg of PQ diphosphate per kg.
as §1, with “berghei” for “berchei”

[5] = Stability at room temperature; format: physicochemical; conditions: for Stability at room temp. under inert atmosphere: argon
[6] = single i.v. three hours after sporozoites, mg PQ diphosphate equivalent/kg

SMILES | Clinical effectiveness [1] | Hemolytic effect [2] | Hemolysis (% of total hemoglobin concentration) ([2]; 10 mM, 1 hour, 37° C., 60 min, 10000 µM) | Toxic effects (words) [3] | Toxic effects (words) ([3]; listed as primaquine) | ED50 [4] [mg/kg] | ED100 [4] [mg/kg] | minimal effective dose [4] [mg/kg] | PQ index [4] | CPD50, causal prophylactic dose curing 50% of the infected and treated animals [4, 6] | ED100, totally curative dose [4, 6] | Stability at room temp. and in the air [5] | Stability at room temp. under inert atmosphere [5] | ED50 [4, 6] [mg/kg] | ED100 [4, 6] [mg/kg] | minimal effective dose [4, 6] [mg/kg] | CPD50, fold lower than for PQ [4] | Activity compared with PQ ([4]; mouse, in vivo) | Activity relative to PQ, fold as active ([4]; model of malaria in mice)
COc1cc(NC(C)CCCN)c2ncccc2c1 (stereo not shown) [Primaquine, 6-methoxy-8-(4-amino-1-methylbutylamino)quinoline, reference compound] | clinically effective | concentration-dependent hemolytic effect | 4.7 (1.7) % | destabilizes the red cell membrane, inducing a hemolysis | hemolysis; also recorded: Methemoglobinuria and gastrointestinal disorders as well as certain effects on the central nervous system | 18.8 | ~54 | 6.5 | 1.00 | 18.8 (1.3) mg/kg | TOX |  |  |  |  |  |  |  | 
COc1cc(NC(C)CCCNC(=O)CC[C@H](N)C(=O)O)c2ncccc2c1 (stereo partly drawn) [gGLU-PQ, N-(γ-L-glutamyl)primaquine] |  |  |  |  |  |  |  |  | 2.15 | 8.7 (0.7) mg/kg | 24.2 (9.8) mg/kg | unstable | stable | 8.7 | 24 | 3.2 | 22 -fold | at least twice as active as PQ | 
COc1cc(NC(C)CCCNC(=O)[C@@H]2CCC(=O)N2)c2ncccc2c1 (stereo partly drawn) [pGLU-PQ, N-(α-L-pyroglutamyl)primaquine] |  |  |  |  |  |  |  |  | 1.87 | 10.0 (0.7) mg/kg | 21.8 (5.7) mg/kg | unstable | stable | 10 | 22 | 4.6 | 1.9 -fold |  | at least 1.9 -fold
